The text below walks through data of ChEMBL document CHEMBL2401737 (J Med Chem, 2013).

Values after ≈ are worked out from the molar mass of the structure shown.

Data set [1] relates to Human immunodeficiency virus. The experiment in a line: Ratio of IC50 for pseudo Human immunodeficiency virus to IC50 for pseudo Human immunodeficiency virus in presence of human serum albumin. Format: functional.
In data set [2] the test system is Human immunodeficiency virus. The data set can be described thus: Antiviral activity against pseudo Human immunodeficiency virus infected in HEK293T cells after 2 days in presence of human serum albumin. Format: functional, organism-based. The conditions noted are these: Human immunodeficiency virus 1, HEK-293T, 48 h.
Data set [3] has as its target Human immunodeficiency virus type 1 integrase (Human immunodeficiency virus 1, UniProt Q7ZJM1). The data set can be described thus: Inhibition of HIV-1 integrase strand transfer activity using [3H]-DNA as substrate preincubated for 60 mins prior to substrate addition measured after 25 to 45 mins.
In data set [4] the test system is Human immunodeficiency virus. The data set can be described thus: Antiviral activity against pseudo Human immunodeficiency virus infected in HEK293T cells after 2 days. Conditions: Human immunodeficiency virus 1, HEK-293T, 48 h. Format: functional, organism-based.
Data set [5] is described as follows: Half life in dog S9 fraction. Format: ADME, Canis lupus familiaris.
A short description of data set [6]: Half life in Sprague-Dawley rat at 1 mg/kg, iv and 5 mg/kg, po administered as capsule by LC-MS/MS analysis. Format: ADME, organism-based. The conditions noted are these: in vivo.
In data set [7] the test system is Human immunodeficiency virus 1. The data set can be described thus: Antiviral activity against Human immunodeficiency virus 1 3B infected in human MT4 cells after 4 to 5 days by bioluminescence assay. Format: functional, organism-based.
Data set [8] can be described thus: Half life in rat hepatocytes. Format: ADME, cell-based, Hepatocyte.
The nature of data set [9]: Half life in monkey S9 fraction. Conditions: rhesus monkey. Format: ADME, Macaca mulatta.
Data set [10] is described as follows: Solubility of the compound in simulated gastrointestinal fluid. Format: physicochemical.
Data set [11] in a line: Fraction unbound in Beagle dog plasma at 1 mg/kg, iv and 5 mg/kg, po administered as capsule by equilibrium dialysis technique. Format: ADME, organism-based, Canis lupus familiaris. (In general: In equilibrium dialysis only unbound substance equilibrates across the membrane.)
The test system of data set [12] is Human immunodeficiency virus 1. The data set can be described thus: Antiviral activity against Human immunodeficiency virus 1 3B infected in human MT4 cells after 4 to 5 days by bioluminescence assay in presence of human serum relative to control. Format: functional.
Data set [13] concerns Human immunodeficiency virus 1. The data set can be described thus: Antiviral activity against Human immunodeficiency virus 1 Ba-L infected human PBMC after 7 days by [methyl-3H]dTTP incorporation assay. Format: functional, organism-based. The conditions noted are these: 168 h.
Data set [14] can be described thus: Clearance in Beagle dog at 1 mg/kg, iv and 5 mg/kg, po administered as capsule by LC-MS/MS analysis. Format: ADME, organism-based, Canis lupus familiaris. The conditions noted are these: in vivo.
Data set [15] can be described thus: Half life in rat S9 fraction. Format: ADME.
A short description of data set [16]: Half life in cynomolgus monkey at 1 mg/kg, iv and 5 mg/kg, po administered as capsule by LC-MS/MS analysis. Format: ADME, organism-based, Macaca fascicularis. Conditions: in vivo.
Data set [17] is described as follows: Volume of distribution at steady state in Beagle dog at 1 mg/kg, iv and 5 mg/kg, po administered as capsule by LC-MS/MS analysis. Format: ADME, organism-based, Canis lupus familiaris. Conditions: in vivo, read-out: Vdss.
Data set [18] can be described thus: Apparent permeability in MDCK cells. Format: ADME, cell-based, Canis lupus familiaris. The conditions noted are these: dog.
A short description of data set [19]: Plasma concentration in rat at 5 mg/kg, po after 24 hrs. Format: ADME, organism-based. Details: dose 5 mg/kg, route oral.
Data set [20] in a line: Lipophilicity, log D of the compound at pH 7.4 by chromatographic analysis. The conditions noted are these: buffer. Format: physicochemical.
Data set [21] relates to Human immunodeficiency virus. The experiment in a line: Antiviral activity against Human immunodeficiency virus harboring integrase Q148K mutant infected in human HeLa cells expressing CD4 after 2 days by beta galactosidase assay relative to wild type HIV. Format: functional.
Data set [22] is described as follows: Volume of distribution at steady state in cynomolgus monkey at 1 mg/kg, iv and 5 mg/kg, po administered as capsule by LC-MS/MS analysis. The conditions noted are these: in vivo, read-out: Vdss. Format: ADME, organism-based, Macaca fascicularis.
Data set [23] is described as follows: Clearance in cynomolgus monkey at 1 mg/kg, iv and 5 mg/kg, po administered as capsule by LC-MS/MS analysis. Format: ADME, organism-based, Macaca fascicularis. The conditions noted are these: in vivo.
Data set [24] in a line: Oral bioavailability in Beagle dog at 5 mg/kg administered as capsule by LC-MS/MS analysis. Format: ADME, organism-based, Canis lupus familiaris. Conditions: in vivo.
Data set [25] is described as follows: Oral bioavailability in cynomolgus monkey at 5 mg/kg administered as capsule by LC-MS/MS analysis. Format: ADME, organism-based, Macaca fascicularis. The conditions noted are these: in vivo.
The nature of data set [26]: Half life in human hepatocytes. Format: ADME, cell-based, Hepatocyte.
A short description of data set [27]: Half life in Beagle dog at 1 mg/kg, iv and 5 mg/kg, po administered as capsule by LC-MS/MS analysis. Format: ADME, organism-based, Canis lupus familiaris. Conditions: in vivo.
Data set [28] is described as follows: Fraction unbound in human plasma. Format: ADME, cell-free.
Data set [29] can be described thus: Ratio of plasma concentration in rat to IC90 for pseudo Human immunodeficiency virus. Format: ADME, cell-free.
The nature of data set [30]: Fraction unbound in cynomolgus monkey plasma at 1 mg/kg, iv and 5 mg/kg, po administered as capsule by equilibrium dialysis technique. Format: ADME, organism-based, Macaca fascicularis.
Data set [31] is described as follows: Fraction unbound in Sprague-Dawley rat plasma at 1 mg/kg, iv and 5 mg/kg, po administered as capsule by equilibrium dialysis technique. Format: ADME, organism-based.
The nature of data set [32]: Half life in human S9 fraction. Format: ADME.
Data set [33] can be described thus: Volume of distribution at steady state in cynomolgus monkey at 1 mg/kg, iv and 5 mg/kg, po administered as suspension by LC-MS/MS analysis. Format: ADME, organism-based, Macaca fascicularis. Conditions: in vivo, read-out: Vdss.
A short description of data set [34]: Half life in Beagle dog at 1 mg/kg, iv and 5 mg/kg, po administered as suspension by LC-MS/MS analysis. The conditions noted are these: in vivo. Format: ADME, organism-based, Canis lupus familiaris.
Data set [35] is described as follows: Fraction unbound in Beagle dog plasma at 1 mg/kg, iv and 5 mg/kg, po administered as suspension by equilibrium dialysis technique. Format: ADME, organism-based, Canis lupus familiaris.
A short description of data set [36]: Oral bioavailability in Beagle dog at 5 mg/kg administered as suspension by LC-MS/MS analysis. Format: ADME, organism-based, Canis lupus familiaris. The conditions noted are these: in vivo.
Data set [37] in a line: Clearance in cynomolgus monkey at 1 mg/kg, iv and 5 mg/kg, po administered as suspension by LC-MS/MS analysis. Format: ADME, organism-based, Macaca fascicularis. Conditions: in vivo.
The nature of data set [38]: Clearance in Beagle dog at 1 mg/kg, iv and 5 mg/kg, po administered as suspension by LC-MS/MS analysis. Format: ADME, organism-based, Canis lupus familiaris. The conditions noted are these: in vivo.
Data set [39] can be described thus: Half life in cynomolgus monkey at 1 mg/kg, iv and 5 mg/kg, po administered as suspension by LC-MS/MS analysis. Conditions: in vivo. Format: ADME, organism-based, Macaca fascicularis.
Data set [40] in a line: Volume of distribution at steady state in Beagle dog at 1 mg/kg, iv and 5 mg/kg, po administered as suspension by LC-MS/MS analysis. Format: ADME, organism-based, Canis lupus familiaris. The conditions noted are these: in vivo, read-out: Vdss.
The nature of data set [41]: Oral bioavailability in Sprague-Dawley rat at 5 mg/kg administered as suspension by LC-MS/MS analysis. Format: ADME, organism-based. The conditions noted are these: in vivo.
Data set [42] is described as follows: Half life in Sprague-Dawley rat at 1 mg/kg, iv and 5 mg/kg, po administered as suspension by LC-MS/MS analysis. Format: ADME, organism-based. The conditions noted are these: in vivo.
Data set [43] can be described thus: Volume of distribution at steady state in Sprague-Dawley rat at 1 mg/kg, iv and 5 mg/kg, po administered as suspension by LC-MS/MS analysis. Format: ADME, organism-based. Conditions: in vivo, read-out: Vdss.
Data set [44] is described as follows: Fraction unbound in cynomolgus monkey plasma at 1 mg/kg, iv and 5 mg/kg, po administered as suspension by equilibrium dialysis technique. Format: ADME, organism-based, Macaca fascicularis.
A short description of data set [45]: Clearance in Sprague-Dawley rat at 1 mg/kg, iv and 5 mg/kg, po administered as suspension by LC-MS/MS analysis. Format: ADME, organism-based. Conditions: in vivo.
Data set [46] in a line: Fraction unbound in Sprague-Dawley rat plasma at 1 mg/kg, iv and 5 mg/kg, po administered as suspension by equilibrium dialysis technique. Format: ADME, organism-based.
Data set [47] in a line: Oral bioavailability in cynomolgus monkey at 5 mg/kg administered as suspension by LC-MS/MS analysis. Format: ADME, organism-based, Macaca fascicularis. Conditions: in vivo.

Chain of Human immunodeficiency virus type 1 integrase (Q7ZJM1 whole entry): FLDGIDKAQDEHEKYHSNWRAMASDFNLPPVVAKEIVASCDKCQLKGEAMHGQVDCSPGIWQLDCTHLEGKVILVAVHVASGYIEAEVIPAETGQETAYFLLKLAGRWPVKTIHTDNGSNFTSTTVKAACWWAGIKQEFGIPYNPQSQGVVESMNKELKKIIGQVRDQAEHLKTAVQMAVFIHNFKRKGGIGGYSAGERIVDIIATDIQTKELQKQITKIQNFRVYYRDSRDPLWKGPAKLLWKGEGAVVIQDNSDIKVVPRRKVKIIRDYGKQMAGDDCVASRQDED

`C[C@@H]1CCN2C(=O)c3c(O)c(=O)c(C(=O)NCc4ccc(F)cc4)cn3C[C@@H]2O1`: the “Ratio IC50” value in data set [1] worked out at 12. The half-inhibitory concentration (IC50) in data set [2] came out at 25 nM; in [3] it was 5 nM; in [4] it was 2.1 nM.

In the case of `C[C@H]1CO[C@@H]2Cn3cc(C(=O)NCc4ccc(F)cc4F)c(=O)c(O)c3C(=O)N12` [CABOTEGRAVIR], the half-life in [5] was greater than 3 h; in [6] it was greater than 18 h; in data set [8], greater than 3.67 h; in data set [9] it was greater than 3 h; in data set [15], greater than 3 h; in data set [16] it was 4 h. Also, the half-life is greater than 3.67 h in data set [26], 5.7 h in [27] and greater than 3 h in [32]. In data set [1], the “Ratio IC50” value is recorded as 60. Moreover, the half-inhibitory concentration (IC50) amounted to 1.3 nM in data set [7]; 0.2 nM in data set [13]; 30 nM in data set [2]; 3 nM in data set [3]; 0.5 nM in [4]. The same molecule gave a solubility in data set [10] of 42 µg/mL (≈ 104 µM). The fraction unbound is 0.007 in data set [11], 0.004 in data set [28], 0.003 in data set [30] and less than 0.001 in data set [31]. Moreover, the figures for the “fold change (FC)” value in [12] and in [21] were 408 and 3.9, respectively. For the same molecule, the clearance amounted to 0.34 mL/min/kg in [14] and 0.32 mL/min/kg in [23]. Moreover, the Vd in [17] was 0.14 L/kg; in data set [22], 0.09 L/kg. Further, the Papp in data set [18] turned out to be 42.5 ×10⁻⁶ cm/s. In data set [19], this molecule returned a concentration at 24 h of 9590 ng/mL. Further, the chromatographic logD in data set [20] was found to be 3.49. Besides, in [2], the 90% effect concentration (IC90) came out at 0.0491 µg/mL. Moreover, the bioavailability in data set [24] was determined as 8%; in data set [25], 6.2%. Moreover, the Ratio in [29] was 0.9.

Regarding `C[C@@H]1CCO[C@H]2Cn3cc(C(=O)NCc4ccc(F)cc4F)c(=O)c([O-])c3C(=O)N12.[Na+]` [DOLUTEGRAVIR SODIUM], the half-life was greater than 3 h in [5]; 5.2 h in data set [34]; greater than 3.67 h in [8]; greater than 3 h in [9]; 6 h in [39]; greater than 3 h in [15]. Also, the values for the half-life in [42], in [26] and in data set [32] were 6.2 h, greater than 3.67 h and greater than 3 h, respectively. The Vd in [33] turned out to be 0.3 L/kg; in [40], 0.3 L/kg; in data set [43], 0.1 L/kg. The unbound share (fraction unbound) in data set [35] turned out to be 0.046; in [44], 0.009; in data set [46], 0.001; in data set [28], 0.007. In addition, the bioavailability is 35% in data set [36], 34% in data set [41] and 25% in data set [47]. The clearance in [37] is 2.1 mL/min/kg; in [38] it was 2.2 mL/min/kg; in data set [45] it was 0.23 mL/min/kg. In data set [10], this molecule showed a solubility of 130 µg/mL. For the same molecule, the Papp in data set [18] turned out to be 58.5 ×10⁻⁶ cm/s. For the same molecule, the concentration at 24 h in [19] turned out to be 908 ng/mL. Further, the chromatographic logD in data set [20] was 3.67.

`C[C@@H]1CCO[C@H]2Cn3cc(C(=O)NCc4ccc(F)cc4F)c(=O)c(O)c3C(=O)N12` [DOLUTEGRAVIR]: the half-inhibitory concentration (IC50) in data set [7] is 2 nM; in data set [13], 0.5 nM; in [2], 22 nM; in data set [4], 1.7 nM. Moreover, the “fold change (FC)” value in data set [12] turned out to be 75; in data set [21] it was 0.4. Also, the concentration for an effect of 90% (IC90) in data set [2] was determined as 0.0374 µg/mL.

What is called IC50 is the concentration needed to halve the response being measured. The term half-life denotes how long it takes for the measured level to halve. By solubility is commonly meant how much of the substance goes into solution per volume. One may read the fraction unbound as free concentration divided by total concentration. The Papp is a coefficient for how fast a substance crosses the barrier. As a reminder, the chromatographic logD is a lipophilicity value derived from retention on a column. The IC90 is the concentration at which the effect reaches the 90% level. For orientation: bioavailability means the share of a dose that reaches the circulation, judged against a reference dose that is usually intravenous.
